Measured values as given in ChEMBL document CHEMBL1933021, “Novel and selective spiroindoline-based inhibitors of Sky kinase” (Bioorg Med Chem Lett, 2012).

Columns and labels:
[1] = target: Tyrosine-protein kinase ABL1 (Homo sapiens, UniProt P00519); assay: Inhibition of Abl
[2] = target: T1, Protein kinase C zeta type (Homo sapiens, UniProt Q05513); assay: Inhibition of PKCzeta
T1 sequence (Q05513 whole entry): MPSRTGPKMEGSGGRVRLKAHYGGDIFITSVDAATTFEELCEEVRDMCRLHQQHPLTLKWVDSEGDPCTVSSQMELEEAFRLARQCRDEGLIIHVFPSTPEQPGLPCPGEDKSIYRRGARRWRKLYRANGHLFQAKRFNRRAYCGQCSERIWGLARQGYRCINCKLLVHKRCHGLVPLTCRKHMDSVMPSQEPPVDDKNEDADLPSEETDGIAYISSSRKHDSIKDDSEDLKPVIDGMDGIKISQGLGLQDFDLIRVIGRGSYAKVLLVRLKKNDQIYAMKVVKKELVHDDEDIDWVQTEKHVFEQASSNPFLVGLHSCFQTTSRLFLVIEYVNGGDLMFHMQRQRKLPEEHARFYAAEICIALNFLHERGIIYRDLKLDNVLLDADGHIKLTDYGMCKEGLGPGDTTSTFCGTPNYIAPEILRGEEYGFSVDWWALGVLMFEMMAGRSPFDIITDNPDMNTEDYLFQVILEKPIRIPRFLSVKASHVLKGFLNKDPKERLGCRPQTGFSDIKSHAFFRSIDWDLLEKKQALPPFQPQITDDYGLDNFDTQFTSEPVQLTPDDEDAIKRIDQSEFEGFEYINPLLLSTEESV

[3] = target: Cyclin-dependent kinase 2 (Homo sapiens, UniProt P24941); assay: Inhibition of Cdk2
[4] = target: T2, Serine/threonine-protein kinase Chk1 (Homo sapiens, UniProt O14757); assay: Inhibition of Chk1
T2 sequence (O14757 whole entry): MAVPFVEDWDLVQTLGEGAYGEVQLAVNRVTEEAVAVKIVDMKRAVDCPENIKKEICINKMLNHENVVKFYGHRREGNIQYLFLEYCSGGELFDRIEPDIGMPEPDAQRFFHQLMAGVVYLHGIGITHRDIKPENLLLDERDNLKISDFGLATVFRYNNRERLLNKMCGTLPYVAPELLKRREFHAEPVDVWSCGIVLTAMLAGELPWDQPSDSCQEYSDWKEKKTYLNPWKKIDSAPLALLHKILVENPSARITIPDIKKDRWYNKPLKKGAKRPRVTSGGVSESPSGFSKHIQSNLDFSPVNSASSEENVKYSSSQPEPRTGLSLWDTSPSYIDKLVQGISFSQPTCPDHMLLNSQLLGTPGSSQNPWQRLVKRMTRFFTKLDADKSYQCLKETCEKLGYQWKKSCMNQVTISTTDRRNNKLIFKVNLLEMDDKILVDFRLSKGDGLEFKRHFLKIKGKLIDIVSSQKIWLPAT

[5] = target: Glycogen synthase kinase-3 beta (Homo sapiens, UniProt P49841); assay: Inhibition of Gsk3beta
Sequence of Glycogen synthase kinase-3 beta (P49841 whole entry): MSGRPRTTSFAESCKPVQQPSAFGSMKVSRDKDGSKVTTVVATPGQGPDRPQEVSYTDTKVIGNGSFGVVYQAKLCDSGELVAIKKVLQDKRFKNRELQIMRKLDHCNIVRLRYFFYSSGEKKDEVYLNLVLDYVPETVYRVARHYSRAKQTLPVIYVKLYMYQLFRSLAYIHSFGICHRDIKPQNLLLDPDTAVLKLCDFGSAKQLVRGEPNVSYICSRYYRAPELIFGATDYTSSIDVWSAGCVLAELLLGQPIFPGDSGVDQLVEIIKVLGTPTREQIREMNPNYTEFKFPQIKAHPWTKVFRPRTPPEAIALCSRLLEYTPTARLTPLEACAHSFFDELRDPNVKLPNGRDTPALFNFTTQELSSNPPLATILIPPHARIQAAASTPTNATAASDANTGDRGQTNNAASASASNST

[6] = target: T3, Inhibitor of nuclear factor kappa-B kinase subunit epsilon (Homo sapiens, UniProt Q14164); assay: Inhibition of IKKi
T3 sequence (Q14164 whole entry): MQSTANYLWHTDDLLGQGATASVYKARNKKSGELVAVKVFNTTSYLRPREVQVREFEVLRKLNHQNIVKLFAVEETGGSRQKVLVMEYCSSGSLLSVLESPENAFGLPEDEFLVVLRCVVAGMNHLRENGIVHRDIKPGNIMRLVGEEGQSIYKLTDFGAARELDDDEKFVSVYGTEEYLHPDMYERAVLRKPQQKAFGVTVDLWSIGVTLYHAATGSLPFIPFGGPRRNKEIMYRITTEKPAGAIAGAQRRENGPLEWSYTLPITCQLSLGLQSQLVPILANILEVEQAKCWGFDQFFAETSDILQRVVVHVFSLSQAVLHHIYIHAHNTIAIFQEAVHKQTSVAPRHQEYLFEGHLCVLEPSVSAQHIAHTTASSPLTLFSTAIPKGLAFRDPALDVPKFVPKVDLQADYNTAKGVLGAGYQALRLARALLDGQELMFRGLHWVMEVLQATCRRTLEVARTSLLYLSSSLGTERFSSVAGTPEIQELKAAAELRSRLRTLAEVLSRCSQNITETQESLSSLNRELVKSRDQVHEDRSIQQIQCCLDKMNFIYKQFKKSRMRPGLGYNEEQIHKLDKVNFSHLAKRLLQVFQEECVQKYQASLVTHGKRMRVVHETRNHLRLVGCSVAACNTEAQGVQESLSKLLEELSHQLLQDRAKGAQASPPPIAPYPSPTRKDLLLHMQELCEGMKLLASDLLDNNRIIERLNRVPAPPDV

[7] = Inhibition of p38
[8] = target: Fibroblast growth factor receptor 1 (Homo sapiens, UniProt P11362); assay: Inhibition of FGFR1
Sequence of Fibroblast growth factor receptor 1 (P11362 whole entry): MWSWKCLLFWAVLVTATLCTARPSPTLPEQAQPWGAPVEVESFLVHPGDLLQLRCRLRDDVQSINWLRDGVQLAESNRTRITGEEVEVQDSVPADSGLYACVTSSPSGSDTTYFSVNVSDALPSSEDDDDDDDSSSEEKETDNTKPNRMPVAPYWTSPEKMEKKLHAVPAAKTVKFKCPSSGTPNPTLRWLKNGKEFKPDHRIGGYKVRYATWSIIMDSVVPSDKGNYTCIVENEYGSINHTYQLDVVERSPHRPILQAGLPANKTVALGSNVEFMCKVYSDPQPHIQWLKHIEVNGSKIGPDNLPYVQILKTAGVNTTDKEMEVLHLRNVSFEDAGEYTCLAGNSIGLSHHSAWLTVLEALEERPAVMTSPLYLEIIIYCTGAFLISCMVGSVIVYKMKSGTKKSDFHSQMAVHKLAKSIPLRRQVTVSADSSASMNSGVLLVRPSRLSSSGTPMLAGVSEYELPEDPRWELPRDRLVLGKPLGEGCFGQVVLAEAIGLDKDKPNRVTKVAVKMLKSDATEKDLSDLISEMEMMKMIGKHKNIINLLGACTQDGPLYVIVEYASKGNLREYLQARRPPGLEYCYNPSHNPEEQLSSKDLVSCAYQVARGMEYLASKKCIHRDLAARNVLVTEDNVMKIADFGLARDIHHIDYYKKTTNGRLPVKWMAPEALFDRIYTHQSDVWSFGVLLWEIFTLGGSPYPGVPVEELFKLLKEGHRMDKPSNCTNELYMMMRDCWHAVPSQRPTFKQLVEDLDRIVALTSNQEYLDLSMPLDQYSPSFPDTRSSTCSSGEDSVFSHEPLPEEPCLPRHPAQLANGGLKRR

[9] = target: T4, Tyrosine-protein kinase receptor UFO (Homo sapiens, UniProt P30530); assay: Inhibition of Axl
T4 sequence (P30530 whole entry): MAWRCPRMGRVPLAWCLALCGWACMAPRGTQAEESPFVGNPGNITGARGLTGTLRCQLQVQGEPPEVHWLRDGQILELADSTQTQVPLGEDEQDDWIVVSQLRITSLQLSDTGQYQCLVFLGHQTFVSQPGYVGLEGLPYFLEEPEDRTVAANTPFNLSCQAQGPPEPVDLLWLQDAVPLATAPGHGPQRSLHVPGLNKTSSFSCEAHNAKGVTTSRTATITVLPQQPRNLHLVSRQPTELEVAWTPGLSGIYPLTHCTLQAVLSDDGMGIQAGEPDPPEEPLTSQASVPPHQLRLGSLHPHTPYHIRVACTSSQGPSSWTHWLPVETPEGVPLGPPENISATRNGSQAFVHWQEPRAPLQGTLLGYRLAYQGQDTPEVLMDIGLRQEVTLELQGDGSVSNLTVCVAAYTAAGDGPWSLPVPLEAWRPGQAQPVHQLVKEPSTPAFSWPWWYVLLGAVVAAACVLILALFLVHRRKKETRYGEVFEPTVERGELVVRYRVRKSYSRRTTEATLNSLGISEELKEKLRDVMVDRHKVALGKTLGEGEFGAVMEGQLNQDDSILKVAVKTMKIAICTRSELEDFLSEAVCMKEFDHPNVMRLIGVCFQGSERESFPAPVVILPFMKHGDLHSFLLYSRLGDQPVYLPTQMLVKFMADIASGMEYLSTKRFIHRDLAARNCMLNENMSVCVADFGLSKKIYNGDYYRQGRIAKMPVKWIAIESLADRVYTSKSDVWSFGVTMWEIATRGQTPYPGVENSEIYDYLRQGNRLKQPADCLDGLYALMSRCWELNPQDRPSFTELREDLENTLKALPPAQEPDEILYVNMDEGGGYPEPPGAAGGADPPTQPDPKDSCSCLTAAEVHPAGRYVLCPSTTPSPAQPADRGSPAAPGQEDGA

Sequence of Tyrosine-protein kinase ABL1 (P00519 whole entry): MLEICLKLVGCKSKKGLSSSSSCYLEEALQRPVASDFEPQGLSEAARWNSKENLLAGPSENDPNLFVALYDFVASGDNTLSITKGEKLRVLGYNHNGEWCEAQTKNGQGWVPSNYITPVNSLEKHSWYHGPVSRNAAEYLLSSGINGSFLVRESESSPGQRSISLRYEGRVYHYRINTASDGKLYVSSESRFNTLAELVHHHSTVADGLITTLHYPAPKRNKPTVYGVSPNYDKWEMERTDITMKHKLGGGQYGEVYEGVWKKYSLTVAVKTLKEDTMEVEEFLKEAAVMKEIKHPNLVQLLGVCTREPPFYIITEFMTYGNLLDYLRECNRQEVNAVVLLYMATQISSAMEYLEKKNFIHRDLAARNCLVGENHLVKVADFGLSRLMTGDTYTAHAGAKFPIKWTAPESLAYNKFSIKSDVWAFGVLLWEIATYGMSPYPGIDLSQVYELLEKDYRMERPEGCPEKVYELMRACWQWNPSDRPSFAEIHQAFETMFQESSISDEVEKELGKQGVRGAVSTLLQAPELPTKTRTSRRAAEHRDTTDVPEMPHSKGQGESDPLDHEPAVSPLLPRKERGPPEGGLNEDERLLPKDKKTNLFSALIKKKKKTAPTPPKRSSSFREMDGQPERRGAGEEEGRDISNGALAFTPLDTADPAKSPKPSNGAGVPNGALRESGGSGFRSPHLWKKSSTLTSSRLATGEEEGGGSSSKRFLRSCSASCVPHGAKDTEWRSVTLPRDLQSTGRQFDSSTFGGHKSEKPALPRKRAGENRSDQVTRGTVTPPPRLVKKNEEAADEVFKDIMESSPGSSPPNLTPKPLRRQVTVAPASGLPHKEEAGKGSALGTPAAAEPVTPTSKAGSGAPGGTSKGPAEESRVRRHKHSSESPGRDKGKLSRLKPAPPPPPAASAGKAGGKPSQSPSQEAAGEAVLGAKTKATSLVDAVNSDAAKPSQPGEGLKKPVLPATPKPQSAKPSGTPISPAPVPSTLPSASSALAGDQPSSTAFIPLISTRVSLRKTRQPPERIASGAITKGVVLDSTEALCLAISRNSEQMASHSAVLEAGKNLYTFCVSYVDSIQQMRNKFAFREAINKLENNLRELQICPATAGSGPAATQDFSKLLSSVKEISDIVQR

| Compound | IC50 [1] [µM] | IC50 [2] [µM] | IC50 [3] [µM] | IC50 [4] [µM] | IC50 [5] [µM] | IC50 [6] [µM] | IC50 [7] [µM] | IC50 [8] [µM] | IC50 [9] [µM] |
| --- | --- | --- | --- | --- | --- | --- | --- | --- | --- |
| O=C(c1cc2ccc(F)cc2[nH]1)N1C[C@]2(CCN(C3CCNC3)C2)c2ccccc21 (stereo partly specified) | > 30 | > 30 | > 30 | > 30 | > 30 | > 30 | > 30 | > 30 | 5.25 |
| C[C@@H]1CCC(N2CC[C@]3(CN(C(=O)c4cc5ccc(F)cc5[nH]4)c4ccccc43)C2)CN1 (stereo partly specified) | > 30 | > 30 | > 30 | > 30 | > 30 | > 30 | > 30 | 22.7 | 23.8 |
| O=C(c1cc2cc(F)ccc2[nH]1)N1C[C@]2(CCN(C3CCCNC3)C2)c2ccccc21 (stereo partly specified) | > 30 | > 30 | > 30 | > 30 | > 30 | > 30 | > 30 | > 30 | 19.4 |
| C[C@@H]1CCC(N2CC[C@]3(CN(C(=O)c4cc5ccccc5[nH]4)c4ccccc43)C2)CN1 (stereo partly specified) | > 30 | > 30 | > 30 | > 30 | > 30 | > 30 | > 30 | > 30 | 18.4 |
